Results: ChEMBL document CHEMBL5291721, “A preclinical secondary pharmacology resource illuminates target-adverse drug reaction associations of marketed drugs” (Nat Commun, 2023)

Key:
[1] = molecular target: T1, Muscarinic acetylcholine receptor M2 (Homo sapiens, UniProt P08172); format: functional, cell-based
T1 sequence (P08172 whole entry): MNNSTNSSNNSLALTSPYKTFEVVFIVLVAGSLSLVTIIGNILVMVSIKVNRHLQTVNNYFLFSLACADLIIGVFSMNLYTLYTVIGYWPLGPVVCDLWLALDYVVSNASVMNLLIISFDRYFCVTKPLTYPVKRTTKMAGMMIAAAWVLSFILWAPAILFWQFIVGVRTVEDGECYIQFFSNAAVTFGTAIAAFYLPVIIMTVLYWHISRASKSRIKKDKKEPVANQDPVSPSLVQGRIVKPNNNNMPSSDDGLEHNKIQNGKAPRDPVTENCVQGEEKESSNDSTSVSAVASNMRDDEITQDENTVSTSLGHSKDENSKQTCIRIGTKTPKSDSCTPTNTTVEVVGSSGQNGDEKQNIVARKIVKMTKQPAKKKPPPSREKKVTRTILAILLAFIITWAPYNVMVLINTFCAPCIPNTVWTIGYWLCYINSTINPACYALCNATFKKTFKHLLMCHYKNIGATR

[2] = molecular target: 3',5'-cyclic-AMP phosphodiesterase 4D (Homo sapiens, UniProt Q08499); format: functional
3',5'-cyclic-AMP phosphodiesterase 4D, sequence (Q08499 whole entry): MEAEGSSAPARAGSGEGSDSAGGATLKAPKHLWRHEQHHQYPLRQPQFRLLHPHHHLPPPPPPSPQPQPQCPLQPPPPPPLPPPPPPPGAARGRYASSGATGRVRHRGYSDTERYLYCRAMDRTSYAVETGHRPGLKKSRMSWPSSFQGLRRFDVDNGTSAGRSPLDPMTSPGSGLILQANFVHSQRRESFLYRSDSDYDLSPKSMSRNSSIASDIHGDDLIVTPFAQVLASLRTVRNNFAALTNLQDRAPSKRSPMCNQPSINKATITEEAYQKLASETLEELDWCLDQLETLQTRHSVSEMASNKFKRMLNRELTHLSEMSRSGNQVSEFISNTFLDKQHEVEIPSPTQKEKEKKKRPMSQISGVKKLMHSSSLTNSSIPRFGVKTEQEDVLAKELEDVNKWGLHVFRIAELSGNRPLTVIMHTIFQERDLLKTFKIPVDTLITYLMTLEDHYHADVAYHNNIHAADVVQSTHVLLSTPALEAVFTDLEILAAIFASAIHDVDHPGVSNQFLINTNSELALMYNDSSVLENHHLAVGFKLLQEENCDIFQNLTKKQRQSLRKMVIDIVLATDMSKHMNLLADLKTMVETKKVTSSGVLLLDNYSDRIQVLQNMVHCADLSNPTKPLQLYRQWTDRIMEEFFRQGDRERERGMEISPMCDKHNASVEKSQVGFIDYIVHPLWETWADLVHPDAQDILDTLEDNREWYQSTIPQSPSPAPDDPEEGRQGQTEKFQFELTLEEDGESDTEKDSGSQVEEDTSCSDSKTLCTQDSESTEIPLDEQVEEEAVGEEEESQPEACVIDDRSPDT

[3] = molecular target: Beta-2 adrenergic receptor (Homo sapiens, UniProt P07550); format: functional, cell-based
Beta-2 adrenergic receptor, sequence (P07550 whole entry): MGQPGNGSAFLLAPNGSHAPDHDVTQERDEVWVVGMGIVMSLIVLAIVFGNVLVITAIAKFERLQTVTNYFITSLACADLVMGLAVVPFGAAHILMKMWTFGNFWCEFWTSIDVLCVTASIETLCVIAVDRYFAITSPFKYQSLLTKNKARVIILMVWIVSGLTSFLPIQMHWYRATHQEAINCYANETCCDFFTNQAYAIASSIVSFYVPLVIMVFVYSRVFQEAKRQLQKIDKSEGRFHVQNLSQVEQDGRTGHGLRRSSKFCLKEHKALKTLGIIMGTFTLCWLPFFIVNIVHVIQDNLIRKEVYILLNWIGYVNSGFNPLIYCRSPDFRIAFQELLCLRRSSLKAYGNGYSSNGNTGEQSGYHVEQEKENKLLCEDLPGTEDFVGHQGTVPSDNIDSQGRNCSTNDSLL

[4] = molecular target: T2, 5-hydroxytryptamine receptor 1A (Homo sapiens, UniProt P08908); format: functional, cell-based
T2 sequence (P08908 whole entry): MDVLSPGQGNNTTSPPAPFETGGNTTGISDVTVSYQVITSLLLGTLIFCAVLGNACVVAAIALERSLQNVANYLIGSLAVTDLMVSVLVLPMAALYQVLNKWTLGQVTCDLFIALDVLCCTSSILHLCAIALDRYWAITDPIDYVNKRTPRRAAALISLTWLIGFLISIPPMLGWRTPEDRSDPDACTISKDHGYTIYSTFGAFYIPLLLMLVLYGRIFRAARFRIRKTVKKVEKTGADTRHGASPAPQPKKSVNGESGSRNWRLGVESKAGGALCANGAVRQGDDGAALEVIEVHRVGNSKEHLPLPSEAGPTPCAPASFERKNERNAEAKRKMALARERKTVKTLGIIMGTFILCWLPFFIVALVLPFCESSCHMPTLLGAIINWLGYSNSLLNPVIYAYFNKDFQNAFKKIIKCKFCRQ

[5] = molecular target: T3, 5-hydroxytryptamine receptor 3A (Homo sapiens, UniProt P46098); format: functional
T3 sequence (P46098 whole entry): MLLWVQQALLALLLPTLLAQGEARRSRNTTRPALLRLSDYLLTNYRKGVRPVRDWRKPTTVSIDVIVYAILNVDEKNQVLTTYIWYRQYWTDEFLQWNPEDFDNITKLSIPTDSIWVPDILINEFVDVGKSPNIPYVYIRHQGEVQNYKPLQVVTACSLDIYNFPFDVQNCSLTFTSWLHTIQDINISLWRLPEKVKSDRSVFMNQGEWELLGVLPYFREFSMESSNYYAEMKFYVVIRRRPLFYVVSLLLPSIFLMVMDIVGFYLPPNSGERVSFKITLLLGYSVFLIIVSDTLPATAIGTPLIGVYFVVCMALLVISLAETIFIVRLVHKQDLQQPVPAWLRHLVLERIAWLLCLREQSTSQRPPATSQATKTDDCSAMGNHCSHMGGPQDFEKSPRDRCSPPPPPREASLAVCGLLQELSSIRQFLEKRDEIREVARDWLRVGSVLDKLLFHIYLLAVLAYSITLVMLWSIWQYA

Adenosine receptor A1 = molecular target: T4, Adenosine receptor A1 (Homo sapiens, UniProt P30542)
T4 sequence (P30542 whole entry): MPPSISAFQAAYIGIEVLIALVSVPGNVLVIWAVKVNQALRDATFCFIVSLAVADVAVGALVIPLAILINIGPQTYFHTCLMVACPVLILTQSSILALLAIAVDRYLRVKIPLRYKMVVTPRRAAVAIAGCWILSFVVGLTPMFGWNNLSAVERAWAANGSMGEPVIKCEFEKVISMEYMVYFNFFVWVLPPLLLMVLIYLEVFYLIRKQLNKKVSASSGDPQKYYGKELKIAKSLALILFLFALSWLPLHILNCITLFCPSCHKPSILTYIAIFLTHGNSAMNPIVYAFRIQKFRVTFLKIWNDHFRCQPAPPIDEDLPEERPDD

Vasopressin V1a receptor = Vasopressin V1a receptor (Homo sapiens, UniProt P37288)
Vasopressin V1a receptor, sequence (P37288 whole entry): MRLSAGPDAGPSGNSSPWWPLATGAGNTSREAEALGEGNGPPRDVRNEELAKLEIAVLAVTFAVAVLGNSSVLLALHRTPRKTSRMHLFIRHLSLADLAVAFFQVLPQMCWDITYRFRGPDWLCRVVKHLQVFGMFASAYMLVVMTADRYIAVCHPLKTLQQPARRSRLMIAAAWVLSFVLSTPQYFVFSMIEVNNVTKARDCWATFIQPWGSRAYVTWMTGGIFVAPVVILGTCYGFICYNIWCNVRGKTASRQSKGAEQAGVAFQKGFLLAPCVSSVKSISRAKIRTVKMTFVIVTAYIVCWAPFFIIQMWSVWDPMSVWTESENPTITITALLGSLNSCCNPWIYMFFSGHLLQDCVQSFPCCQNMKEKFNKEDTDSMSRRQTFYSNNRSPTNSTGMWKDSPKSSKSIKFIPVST

Glucocorticoid receptor = molecular target: T5, Glucocorticoid receptor (Homo sapiens, UniProt P04150)
T5 sequence (P04150 whole entry): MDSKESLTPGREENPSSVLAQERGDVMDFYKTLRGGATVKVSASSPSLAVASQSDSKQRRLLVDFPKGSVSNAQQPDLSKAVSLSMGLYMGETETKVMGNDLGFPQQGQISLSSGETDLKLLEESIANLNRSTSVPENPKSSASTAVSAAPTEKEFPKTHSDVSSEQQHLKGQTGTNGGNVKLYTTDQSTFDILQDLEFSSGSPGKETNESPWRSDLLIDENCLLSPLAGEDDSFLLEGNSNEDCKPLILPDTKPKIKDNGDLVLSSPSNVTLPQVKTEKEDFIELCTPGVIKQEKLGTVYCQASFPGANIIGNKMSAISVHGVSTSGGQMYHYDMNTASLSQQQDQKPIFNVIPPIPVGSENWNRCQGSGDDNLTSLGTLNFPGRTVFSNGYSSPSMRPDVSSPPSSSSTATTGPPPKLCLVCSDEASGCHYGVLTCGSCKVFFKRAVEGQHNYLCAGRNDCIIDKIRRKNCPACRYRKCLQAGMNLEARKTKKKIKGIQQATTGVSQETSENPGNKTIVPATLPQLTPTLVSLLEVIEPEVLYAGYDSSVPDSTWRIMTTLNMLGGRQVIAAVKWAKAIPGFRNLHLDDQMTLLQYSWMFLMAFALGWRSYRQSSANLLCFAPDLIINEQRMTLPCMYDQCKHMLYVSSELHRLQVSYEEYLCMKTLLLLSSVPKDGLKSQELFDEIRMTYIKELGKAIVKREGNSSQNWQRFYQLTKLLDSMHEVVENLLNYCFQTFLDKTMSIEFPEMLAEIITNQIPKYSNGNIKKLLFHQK

[6] = molecular target: Sodium-dependent serotonin transporter (Homo sapiens, UniProt P31645)
Sodium-dependent serotonin transporter, sequence (P31645 whole entry): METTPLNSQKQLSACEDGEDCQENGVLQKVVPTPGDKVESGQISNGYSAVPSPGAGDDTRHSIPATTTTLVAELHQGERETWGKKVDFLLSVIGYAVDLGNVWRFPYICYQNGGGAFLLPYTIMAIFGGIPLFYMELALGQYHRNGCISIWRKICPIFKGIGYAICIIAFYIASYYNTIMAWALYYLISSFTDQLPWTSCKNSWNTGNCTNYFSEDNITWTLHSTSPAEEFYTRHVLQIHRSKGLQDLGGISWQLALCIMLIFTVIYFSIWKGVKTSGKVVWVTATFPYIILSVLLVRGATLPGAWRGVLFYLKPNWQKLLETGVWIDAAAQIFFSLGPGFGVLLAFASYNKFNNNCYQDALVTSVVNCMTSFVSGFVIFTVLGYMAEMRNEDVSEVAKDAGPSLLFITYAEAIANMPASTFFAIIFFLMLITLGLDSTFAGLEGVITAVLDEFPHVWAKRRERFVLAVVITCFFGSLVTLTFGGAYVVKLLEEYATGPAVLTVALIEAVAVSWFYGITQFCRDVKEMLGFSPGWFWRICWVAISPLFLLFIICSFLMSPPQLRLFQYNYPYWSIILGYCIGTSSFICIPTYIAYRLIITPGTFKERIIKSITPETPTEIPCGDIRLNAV
Note: assay procedure not described here.

SMILES	AC50 [1]	AC50 [2]	AC50 [3]	AC50 [4]	AC50 [5]	AC50 (Adenosine receptor A1)	AC50 (Vasopressin V1a receptor)	AC50 (Glucocorticoid receptor)	AC50 [6]
O=C(O)c1cccc(-c2noc(-c3ccccc3F)n2)c1	> 10 µM	> 30 µM	–	–	–	–	–	–	–
CO/N=C(\C(=O)N[C@@H]1C(=O)N2C(C(=O)OCOC(=O)C(C)(C)C)=C(C)CS[C@H]12)c1csc(N)n1	–	> 30 µM	> 30 µM	> 30 µM	> 30 µM	–	–	–	–
NS(=O)(=O)c1cc(-c2nnn[nH]2)c(NCc2cccs2)cc1Cl [AZOSEMIDE]	> 30 µM	7.8 µM	–	–	> 30 µM	> 30 µM	> 30 µM	> 30 µM	> 30 µM
O=C(Cn1ccnc1[N+](=O)[O-])NCc1ccccc1 [BENZNIDAZOLE]	> 30 µM	> 30 µM	–	–	> 30 µM	> 30 µM	> 30 µM	> 30 µM	> 30 µM
C[N+](C)(C)CC(=O)O [BETAINE]	> 30 µM	> 30 µM	–	> 30 µM	> 30 µM	> 30 µM	> 30 µM	–	> 30 µM
CCCC(=O)N1CCCN(c2nc(N)c3cc(OC)c(OC)cc3n2)CC1 [BUNAZOSIN]	> 30 µM	> 30 µM	> 30 µM	> 30 µM	> 30 µM	> 30 µM	> 30 µM	–	> 30 µM
C[N+](C)(C)CCOC(N)=O [CARBAMOYLCHOLINE]	–	> 30 µM	> 30 µM	> 30 µM	> 10 µM	> 10 µM	> 10 µM	–	–
N[C@@H](CSCC(=O)O)C(=O)O [CARBOCYSTEINE]	> 30 µM	> 10 µM	–	> 30 µM	> 30 µM	> 30 µM	> 30 µM	–	> 30 µM
COCC1=C(C(=O)OC(C)OC(=O)OC(C)C)N2C(=O)[C@@H](NC(=O)/C(=N\OC)c3csc(N)n3)[C@H]2SC1 (stereo not given in full) [CEFPODOXIME PROXETIL]	> 30 µM	29 µM	> 30 µM	> 30 µM	> 30 µM	–	–	–	–
NS(=O)(=O)c1cc2c(cc1Cl)NC(CC1CCCC1)NS2(=O)=O (stereo not given) [CYCLOPENTHIAZIDE]	–	> 30 µM	> 30 µM	> 30 µM	> 30 µM	–	–	–	–
CN(C)[C@@H]1C(O)=C(C(N)=O)C(=O)[C@@]2(O)C(O)=C3C(=O)c4c(O)ccc(Cl)c4[C@@H](O)[C@H]3C[C@@H]12 [DEMECLOCYCLINE]	> 10 µM	> 30 µM	–	> 10 µM	> 30 µM	> 10 µM	> 10 µM	> 30 µM	> 10 µM
N/N=c1/cc2c(n[nH]1)CCN(C(=O)c1ccccc1)C2 [ENDRALAZINE]	–	> 30 µM	> 30 µM	> 30 µM	> 30 µM	–	–	–	–
CS(=O)(=O)Nc1cc2occ(NC=O)c(=O)c2cc1Oc1ccccc1 [IGURATIMOD]	–	9.8 µM	–	–	–	–	–	–	> 30 µM
CC(=O)N(CC(O)CO)c1c(I)c(C(=O)NCC(O)CO)c(I)c(C(=O)NCC(O)CO)c1I (stereo not given) [IOHEXOL]	> 10 µM	> 30 µM	–	> 10 µM	> 30 µM	> 30 µM	> 30 µM	–	> 30 µM
CN(CCCN1c2ccccc2CCc2ccccc21)CC(=O)c1ccc(Cl)cc1 [LOFEPRAMINE]	> 30 µM	28 µM	> 30 µM	–	> 30 µM	> 30 µM	> 30 µM	> 30 µM	–
CN1C(=O)N(C)C2C1N(C)C(=O)N2C (stereo not given) [MEBICAR]	> 30 µM	> 30 µM	> 30 µM	> 30 µM	> 30 µM	–	–	–	–
CC(=O)O[C@]1(C(C)=O)CC[C@H]2[C@@H]3C[C@H](C)C4=CC(=O)CC[C@]4(C)[C@H]3CC[C@@]21C [MEDROXYPROGESTERONE ACETATE]	–	–	–	–	–	> 30 µM	> 30 µM	0.015 µM	–
CN(C/C=C/c1ccccc1)Cc1cccc2ccccc12 [NAFTIFINE]	> 10 µM	> 30 µM	> 30 µM	> 10 µM	> 30 µM	> 30 µM	–	> 30 µM	–
CC(C)NCC1CCc2cc(CO)c([N+](=O)[O-])cc2N1 (stereo not given) [OXAMNIQUINE]	> 10 µM	> 30 µM	–	> 30 µM	> 30 µM	> 10 µM	> 10 µM	> 10 µM	39.6 µM
Nc1ccc(/N=N/c2ccccc2)c(N)n1 [PHENAZOPYRIDINE]	> 30 µM	14 µM	> 30 µM	–	3.3 µM	–	–	–	–
CN(C)CCCN1c2ccccc2Sc2ccccc21 [PROMAZINE]	> 10 µM	> 10 µM	> 30 µM	> 10 µM	> 10 µM	> 30 µM	> 10 µM	–	–
O=C(O)CCn1c2c(c3ccccc31)C[C@H](NS(=O)(=O)c1ccc(F)cc1)CC2 [RAMATROBAN]	> 10 µM	> 30 µM	–	> 10 µM	> 30 µM	> 30 µM	> 30 µM	> 30 µM	> 30 µM
O=P(O)(O)C(O)(Cc1cccnc1)P(=O)(O)O [RISEDRONIC ACID]	> 30 µM	> 30 µM	–	> 10 µM	> 30 µM	> 30 µM	> 30 µM	> 30 µM	–
O=C1CCC(N2C(=O)c3ccccc3C2=O)C(=O)N1 (stereo not given) [THALIDOMIDE]	> 10 µM	> 30 µM	> 30 µM	> 10 µM	> 30 µM	> 30 µM	> 10 µM	> 30 µM	–
CC(=O)N[C@H]1[C@H]([C@H](O)[C@H](O)CO)OC(C(=O)O)=C[C@@H]1N=C(N)N [ZANAMIVIR]	> 10 µM	> 30 µM	–	> 30 µM	> 30 µM	> 30 µM	> 30 µM	> 30 µM	> 30 µM
